Here are results for 24 compounds from patent US5378718A, “1,4-dihydropyridine derivatives” (Cedona Pharmaceuticals B.V., priority 1990, dated 1995).

In one assay the test system is arterial blood pressure. The assay is described as follows: Anesthetized rabbit experiments, lowering of arterial blood pressure. Format: in vivo, New Zealand white rabbits. Also on record: key: Inactive: No decrease or decrease less than 5%; Active: Decrease between 5 and 40%; Very Active: Decrease greater than 40%. The note with it: end of 10 min i.v. infusion at highest dose tested (150-200 μg×kg^-1×min^-1), decrease as percentage of basal value. How it is done:
[…]
Animals Anesthesia and Surgical Procedures
New Zealand white rabbits (2.5-3 kg) were anesthetized (30 mg×kg^-1 pentobarbitone, i.v., supplemetal doses as needed). Tracheotomy was performed, and an intra-tracheal cannula was inserted. No artificial ventilation was applied and body temperature was maintained at 37°-38° C.
Left ventricular pressure (LVP) was measured (millar Mikro-Tip catheter via the right carotid artery with transducer in the left ventricle). The LVP signal was differentiated electronically to obtain the rate of change of LVP (LV dP/dt). The heart rate (HR) was derived from the LVP pulse signal. The jugular vein was cannulated for infusion of the test compounds. Aortic blood pressure (SAP and DAP) was monitored (Gould-Statham pressure transducer) by inserting a polyethylene catheter filled with heparin (50 IU×ml^-1) through the femoral artery into the abdominal aorta. Heparin (150 IU×kg^-1, i.v.) was administered to prevent blood clotting.
After completion of surgical procedures, the rabbits were allowed to recover for 15 minutes before drug administration was started.
Infusion of Test Compounds and Test Protocol
Drugs were infused at constant rate (0.5 ml×min^-1) for 10 minutes at various doses, resulting in a typical dose range of 2.0, 20.0 and 200 μg×kg^-1 ×min^-1 (2.5 kg rabbit).
Due to poor solubility, 1 mg×ml^-1 solutions of all the compounds tested were prepared in Intralipid^(R) 10%, containing 10% (v/v) dimethyl sulfoxide (DMSO). […] At the infusion of lower doses, the 1 mg×ml^-1 stock solutions were diluted with Intralipid^(R) 10%.
The presented data are based on the effects obtained at the end of the 10 min infusion period at the highest dose tested (150-200 μg×kg^-1 'min^-1).
The indicated ratings are referring to the effects (decrease, defined as percentage of basal value before infusion of the drug) on arterial blood pressure as follows: […]
Consider “2,6-Dimethyl-3-methyloxycarbonyl-5-methyloxycarbonyl-4-[2-(nitroxyhexyloxyphenyl)]-1,4-dihydropyridine [Example XXXI]”, for which the “Activity with regard to the lowering of blood pressure” value (from here on “Activity with regard to the lowering”) was “Active”.

As to `CCOC(=O)C1=C(C)NC(C)=C(C(=O)OCC)C1c1ccc(OC(=O)CCCO[N+](=O)[O-])cc1` [Example I, 3,5-Diethoxycarbonyl-2,6-dimethyl-4-[4-(3-nitroxypropyl)carbonyloxy]phenyl-1,4-dihydropyridine], the “Activity with regard to the lowering” value is “Active”. On to `COC(=O)C1=C(C)NC(C)=C(C(=O)OC)C1c1cccc(OC)c1OCCO[N+](=O)[O-]` [Example XVII, 3,5-Dimethoxycarbonyl-2,6-dimethyl-4-[3-methoxy-2-(2-nitroxyethoxy)phenyl]-1,4-dihydropyridine×H2 O], for which the “Activity with regard to the lowering” value was “Active”.

With `CCOc1cccc(C2C(C(=O)OC)=C(C)NC(C)=C2C(=O)OC)c1OCCO[N+](=O)[O-]` [Example XVIII, 3,5-Dimethoxycarbonyl-2,6-dimethyl-4-[3-ethoxy-2-(2-nitroxyethoxy)phenyl]-1,4-dihydropyridine×H2 O], the “Activity with regard to the lowering” value is “Active”.

On to `COC(=O)C1=C(C)NC(C)=C(C(=O)OC)C1c1cc(Cl)ccc1OCCO[N+](=O)[O-]` [Example XV], for which the “Activity with regard to the lowering” value is “Active”. Regarding `CCOC(=O)C1=C(C)NC(C)=C(C(=O)OCC)C1c1ccccc1OCCOCCOCCO[N+](=O)[O-]` [Example XX, 3,5-Diethoxycarbonyl-2,6-dimethyl-4-(2-{2-[2-(2-nitroxy-ethoxy)ethoxy]ethoxy}-phenyl)-1,4-dihydropyridine], the “Activity with regard to the lowering” value is “Active”.

Regarding `COC(=O)C1=C(C)NC(C)=C(C(=O)OC)C1c1cc(Br)ccc1OCCO[N+](=O)[O-]` [XIX, 4-[5-Bromo-2-(2-nitroxyethoxy)phenyl]-3,5-dimethoxy-carbonyl-2,6-dimethyl-1,4-dihydropyridine], the “Activity with regard to the lowering” value is recorded as “Active”.

In a further assay the test system is contracted rat aorta. As to the kind of experiment: In vitro rat aorta assay, relaxation of KCl-contracted aorta strips. Format: cell-based. The following applies: rat thoracic aorta strips contracted with 50 mM KCl, 1.25 mM CaCl2; concentration at which residual contraction is 50% of maximum. How it is done: Strips of thoracial rat aortae (without aortic arch, helically cut; length 1-1.5 cm; width about 2 mm) were place in an organ bath [20 ml; Krebs Ringer medium bubbled with O2 /CO2 (95/5%) at 37` C.]. A resting tension of 0.5 g was applied and the preparations were equilibrated during 100 min (fresh buffer solution every 20 min). The strips were isotonically contracted with 50 mM KCl (equimolar part of NaCl in buffer omitted) in the presence of 1.25 mM CaCl2.
Drug-induced relaxation was tested at increasing concentration (half log steps), till maximal or full relaxation (corresponding to basal precontraction value of organ length) had been reached.
Responses were calculated as change in organ length relatively to maximal displacement by contraction, EC50 values corresponding to the drug concentration at which residual contraction is 50% of maximum.
`COC(=O)C1=C(C)NC(C)=C(C(=O)OC)C1c1ccccc1OCCO[N+](=O)[O-]` [Example VII, 3,5-Dimethoxycarbonyl-2,6-dimethyl-4-[2-(2-nitroxy-ethoxy)phenyl]-1,4-dihydropyridine] gave a concentration for a half-maximal effect (EC50) of 59 nM.

In the case of `COC(=O)C1=C(C)NC(C)=C(C(=O)OC)C1c1cc([N+](=O)[O-])ccc1OCCO[N+](=O)[O-]` [Example XIV, 3,5-Dimethoxycarbonyl-2,6-dimethyl-4-[2-(2-nitroxy-ethoxy)-5-nitrophenyl]-1,4-dihydropyridine], the concentration giving a half-maximal response (EC50) was determined as 80 nM.

Compound `COC(=O)C1=C(C)NC(C)=C(C(=O)OC)C1c1cccc(OC)c1OCCO[N+](=O)[O-]` [Example XVII, 3,5-Dimethoxycarbonyl-2,6-dimethyl-4-[3-methoxy-2-(2-nitroxyethoxy)phenyl]-1,4-dihydropyridine×H2 O] showed an EC50 of 88 nM. `COC(=O)C1=C(C)NC(C)=C(C(=O)OC)C1c1cc(Cl)ccc1OCCO[N+](=O)[O-]` [Example XV]: the EC50 stood at 85 nM. As to `CCOC(=O)C1=C(C)NC(C)=C(C(=O)OCC)C1c1ccccc1OCCOCCOCCO[N+](=O)[O-]` [Example XX, 3,5-Diethoxycarbonyl-2,6-dimethyl-4-(2-{2-[2-(2-nitroxy-ethoxy)ethoxy]ethoxy}-phenyl)-1,4-dihydropyridine], a half-maximal effect (EC50) was put at 38 nM. Compound `CCOC(=O)C1=C(C)NC(C)=C(C(=O)OCC)C1c1ccccc1OCCO[N+](=O)[O-]` [Example XXI, 3,5-Diethoxycarbonyl-2,6-dimethyl-4-[2-(2-nitroxy-ethoxy)phenyl]-1,4-dihydropyridine] yielded an EC50 of 14 nM. As for `CCOC(=O)C1=C(C)NC(C)=C(C(=O)OCC)C1c1ccccc1OCC(C)(C)CO[N+](=O)[O-]` [Example XXII, 3,5-Diethoxycarbonyl-2,6-dimethyl-4-[2-(2,2-dimethyl-3-nitroxypropoxy)-phenyl]-1,4-dihydropyridine], the midpoint of the response, the EC50, lay at 60 nM. Compound `CCOC(=O)C1=C(C)NC(C)=C(C(=O)OC)C1c1ccccc1OCC(C)(C)CO[N+](=O)[O-]` (stereo not shown) [Example XXIII, 2,6-Dimethyl-4-[2-(2,2-dimethyl-3-nitroxypropoxy)-phenyl]-3-ethoxycarbonyl-5-methoxycarbonyl-1,4-dihydro-pyridine×H2 O] registered an EC50 of 28 nM. Still for that read-out and setting: with `CCOC(=O)C1=C(C)NC(C)=C(C(=O)OCC)C1c1ccccc1OC[C@H]1CC[C@H](CO[N+](=O)[O-])CC1` [Example XXIV, 3,5-Diethoxycarbonyl-2,6-dimethyl-4-[2-[(4-nitroxymethyl-(trans)-cyclohexyl)methoxy]phenyl]-1,4-dihydropyridine] the figure was 7.8 nM. Take `CCOC(=O)C1=C(C)NC(C)=C(C(=O)OC)C1c1ccccc1OCCCCO[N+](=O)[O-]` (stereo not shown) [Example XXIX, 2,6-Dimethyl-3-ethoxycarbonyl-5-methoxycarbonyl-4-[2-(4-nitroxybutoxy)phenyl]-1,4-dihydropyridine×2H2 O]: the EC50 was determined as 2.6 nM. On the same count and under the same terms, with `CCOC(=O)C1=C(C)NC(C)=C(C(=O)OCC)C1c1ccccc1OCCCCCCCCCCO[N+](=O)[O-]` [Example XXV, 3,5-Diethoxycarbonyl-2,6-dimethyl-4-[2-(10-nitroxy-decyloxy)phenyl]-1,4-dihydropyridine] the figure was 67 nM; with `CCOC(=O)C1=C(C)NC(C)=C(C(=O)OC)C1c1ccccc1OCCCO[N+](=O)[O-]` (stereo not shown) [Example XXVI, 2,6-Dimethyl-3-ethoxycarbonyl-5-methoxycarbonyl-4-[2-(3-nitroxypropoxy)phenyl]-1,4-dihydropyridine], 12 nM; with `COC(=O)C1=C(C)NC(C)=C(C(=O)OC)C1c1ccccc1OCCCO[N+](=O)[O-]` [Example XXVII, 3,5-Dimethoxycarbonyl-2,6-dimethyl-4-[2-(3-nitroxypropoxy)phenyl]-1,4-dihydropyridine], 5.7 nM.

The compound `CCOC(=O)C1=C(C)NC(C)=C(C(=O)OCC)C1c1ccccc1OCCCO[N+](=O)[O-]` [Example XXVIII] gave an EC50 of 7.7 nM. The same measure, in the same setting: in the case of `COC(=O)C1=C(C)NC(C)=C(C(=O)OC)C1c1ccccc1OCCCCCCO[N+](=O)[O-]` [Example XXX, 3,5-Dimethoxycarbonyl-2,6-dimethyl-4-[2-(6-nitroxyhexyloxy)phenyl]-1,4-dihydropyridine] it was 9 nM; in that of `COC(=O)C1=C(C)NC(C)=C(C(=O)OC)C1c1ccccc1OC[C@H]1CC[C@H](CO[N+](=O)[O-])CC1` [Example XXXII, 3,5-Dimethoxycarbonyl-2,6-dimethyl-4-{2-[4-nitroxymethyl(trans)cyclohexylmethoxy]phenyl}-1,4-dihydropyridine], 6.5 nM.

`COC(=O)C1=C(C)NC(C)=C(C(=O)OC)C1c1ccccc1OCC(C)O[N+](=O)[O-]` (stereo not shown) [Example XXXIII, 3,5-Dimethoxycarbonyl-2,6-dimethyl-4-{2-[2-nitroxypropyloxy)phenyl}-1,4-dihydropyridine]: the 50% effective concentration (EC50) came to 16 nM.

Compound `COC(=O)C1=C(C)NC(C)=C(C(=O)OC)C1c1ccccc1OCCCCCCCCO[N+](=O)[O-]` [Example XXXV, 2,6-Dimethyl-3,5-dimethoxycarbonyl-4-[2-(8-nitroxyoctyloxy)phenyl]-1,4-dihydropyridine] returned an EC50 of 5 nM. With `COC(=O)C1=C(C)NC(C)=C(C(=O)OC)C1c1ccccc1OC1CCCCC1O[N+](=O)[O-]` (stereo not shown) [Example XXXVII, 3,5-Dimethoxycarbonyl-2,6-dimethyl-4-[2-(2-nitroxycyclohexoxy)phenyl]-1,4-dihydropyridine×methanol], a half-maximal response (EC50) required 68 nM. The same measure, in the same setting: in the case of `COC(=O)C1=C(C)NC(C)=C(C(=O)OC)C1c1ccccc1OC[C@@H](C)CO[N+](=O)[O-]` [Example XXXVIII] it was 75 nM.

As to `COC(=O)C1=C(C)NC(C)=C(C(=O)OC)C1c1cc(Br)ccc1OCCO[N+](=O)[O-]` [XIX, 4-[5-Bromo-2-(2-nitroxyethoxy)phenyl]-3,5-dimethoxy-carbonyl-2,6-dimethyl-1,4-dihydropyridine], the EC50 was found to be 80 nM.

The EC50 is the concentration needed to bring the measured effect to its halfway point.
